Assays:
[1] = DPPH radical scavenging assay; assay type: biochemical; details: for DPPH Inhibitory%: acylselenourea analogs
Method: Different methods are available to quantify the antioxidant capacity of natural or novel molecules. Notable among these are the ABTS^•+ and DPPH^• methods, which measure the quenching efficiency in vitro for known concentrations of preformed radicals. In this work, the DPPH^• colorimetric assay was carried out. Measurements were recorded on a BioTeck PowerWave XS spectrophotometer (BioTeck Instruments, Winooski, VT, USA) and data were collected using KCJunior v.1.41. software (BioTeck Instruments, Winooski, VT, USA). Compounds with potent activity were selected to further determine their protective effect against ROS-induced cell death caused by H2O2.
DPPH colorimetric assay was performed to determine the in vitro radical scavenging activity of the acylselenourea derivatives. DPPH assay was performed as described by Svinyarov. For each acylselenourea, a stock solution of 1 mg/mL in dimethyl sulfoxide (DMSO) was made, and these solutions were used to prepare the different concentrations employed in the assay. The compounds were tested at two different concentrations (0.003 and 0.03 mg/mL). Intermediate solutions were prepared in methanol and a volume of 100 µL of each was added to each well of the plate. Then, 100 µL of DPPH^• (previously prepared at a concentration of 0.04 mg/mL in methanol and preserved in the dark) was added to the previous methanolic acylselenourea solutions. The discoloration of the purple radical to the yellow reduced form was followed at 517 nm at different time points (0, 5, 15, 30, 60, 90, and 120 min). Ascorbic acid and trolox were used as positive controls. All measurements were carried out in triplicate. Results are expressed as the percentage of the radicals scavenged, calculated using the following formula: (1) % DPPH radical scavenging=Acontrol - Asample/Acontrol × 100 where Acontrol refers to the absorbance of the negative control and Asample refers to the absorbance of the tested compounds. Results are expressed as percentage of DPPH radical scavenging ± SD.

[2] = system: MDA-MB-231, HT-29, HTB-54 and DU-145 cancer cell lines; assay: MTT cell viability assay, statements over the panel of cancer cell lines; assay type: cell-based, human; details: in at least three of the four cancer cell lines tested
Method: (§1) Cell lines were purchased from the American Type Culture Collection (ATCC). Cell lines MDA-MB-231, HTB-54, DU-145, and BEAS-2B were cultured in RPMI 1640 medium (Gibco, Thermo Fisher Scientific, Gaithersburg, MD, USA) supplemented with 10% fetal bovine serum (FBS; Gibco), 100 units/mL penicillin, and […] streptomycin (Gibco). HT-29 cell line was grown in McCoy’s 5A (Gibco), 10% FBS, 100 units/mL penicillin, and 100 μg/mL streptomycin. Cells were maintained at 37 °C and 5% CO2. The culture medium was changed every three days.
(§2) The cell viability of each compound was measured by MTT colorimetric assay. Each compound was dissolved in DMSO at a concentration of 0.01 M. Each compound was tested at two different concentrations (10 and 50 µM) in MDA-MB-231 (breast), HTB-54 (lung), DU-145 (prostate), and HT-29 (colon) human cancer cell lines. Serial dilutions were prepared with supplemented culture medium. […] IC50 and selectivity indexes (SI) were determined.
(§3) Briefly, 1 × 10^4 tumor cells per well were grown in 96-well plates for 24 h. Then, these cells were incubated for 48 h with either DMSO (control) or a different concentration of each of the tested compounds. The cell viability was determined by adding 20 μL of MTT two hours and a half before the termination point. After this time, the culture medium was removed. The resulting formazan crystals were dissolved in 50 μL of DMSO, and the absorbance was measured at 570 nm. Results are expressed as % cell growth. The data were obtained from at least three independent experiments performed in quadruplicate.

DU-145 cells = assay: Protective effects against H2O2-induced oxidative stress in DU-145 cells (MTT); assay type: cell-based, human; details: increase-fold of cell survival
Method: Cells were treated with the selected compounds and then oxidative damage to DU-145 cells was induced using different concentrations of H2O2 (200, 250 and 300 µM), and cell viability was assessed by the MTT method. Briefly, 2.5 × 10^4 DU-145 cells per well were added in 96-well plates. After 24 h of incubation, DMSO, 1.I, 2.I, 5.I, 7.II, 10.II, and ascorbic acid were added to each well at two different concentrations (0.0015 mg/mL and 0.0003 mg/mL) and incubated for 1 h. After that, H2O2 was added at the concentrations of 200, 250, and 300 µM, and the cells were incubated for 12 h to induce cell damage. MTT assay was used to measure cell viability. For each treatment, the mean cell viability was calculated from three independent experiments. The DMSO-treated controls were assigned with a cell viability value of 100% (Vcontrol). The results are expressed as a cell growth inhibition % caused by H2O2 and the increased fold of cell survival, as follows: • Cells without compounds, only treated with H2O2: (2) % Cell growth inhibition=Acontrol - Asample/Acontrol × 100
• Cells treated with compounds and H2O2:
(3) % Cell growth inhibition=Asample (compound) - Asample (compound+H2O2)/Acontrol × 100
(4) Increase-fold of cell survival=% cell growth inhibition (H2O2)/% cell growth inhibition (compound+ H2O2)
The standard error of the mean (SEM) was calculated in at least three independent experiments performed in quadruplicates.

[3] = system: MDA-MB-231 (breast) cancer cell line; assay: MTT cell viability assay, MDA-MB-231; assay type: cell-based, human; details: Homo sapiens, MDA-MB-231, 48 h; for activity at 10 µM: read-out: Cell growth %, MDA-MB-231, 10 µM, 48 h, MTT; for activity at 50 µM: read-out: Cell growth %, MDA-MB-231, 50 µM, 48 h, MTT
Method: as §1, §2, §3

[4] = system: HT-29 (colon) cancer cell line; assay: MTT cell viability assay, HT-29; assay type: cell-based; details: Homo sapiens, HT-29, 48 h, read-out: Cell growth %; for activity at 10 µM: HT-29, 10 µM; for activity at 50 µM: HT-29, 50 µM
Method: as §1, §2, §3

[5] = system: non-malignant BEAS-2B lung cell line; assay: MTT cell viability assay, BEAS-2B; assay type: cell-based; details: Homo sapiens, normal lung, 48 h
Method: as §1, §2, §3

[6] = system: DU-145 (prostate) cancer cell line; assay: MTT cell viability assay, DU-145; assay type: cell-based, human; details: Homo sapiens, DU-145, 48 h; for activity at 10 µM: read-out: Cell growth %, DU-145, 10 µM, 48 h, MTT; for activity at 50 µM: read-out: Cell growth %, DU-145, 50 µM, 48 h, MTT
Method: as §1, §2, §3

[7] = system: HTB-54 (lung) cancer cell line; assay: MTT cell viability assay, HTB-54; assay type: cell-based, human; details: for activity at 10 µM / activity at 50 µM / IC50: Homo sapiens, HTB-54, 48 h; for activity at 10 µM: read-out: Cell growth %, HTB-54, 10 µM, 48 h, MTT; for activity at 50 µM: read-out: Cell growth %, HTB-54, 50 µM, 48 h, MTT; for IC50: read-out: IC50 HTB-54, Lung, MTT, 48 h; for SI: IC50 (BEAS-2B)/IC50 (HTB-54)
Method: as §1, §2, §3

[8] = compound 0.0003 mg/mL, 200 µM H2O2, DU-145
[9] = compound 0.0003 mg/mL, 250 µM H2O2, DU-145
[10] = compound 0.0003 mg/mL, 300 µM H2O2, DU-145
[11] = compound 0.0015 mg/mL, 200 µM H2O2, DU-145
[12] = compound 0.0015 mg/mL, 250 µM H2O2, DU-145
[13] = compound 0.0015 mg/mL, 300 µM H2O2, DU-145

Row | Compound | inhibition ([1]; 0.003 mg/mL, 0 min) | inhibition ([1]; 0.003 mg/mL, 5 min) | inhibition ([1]; 0.003 mg/mL, 15 min) | inhibition ([1]; 0.003 mg/mL, 30 min) | inhibition ([1]; 0.003 mg/mL, 60 min) | inhibition ([1]; 0.003 mg/mL, 90 min) | inhibition ([1]; 0.003 mg/mL, 120 min) | inhibition ([1]; 0.03 mg/mL, 0 min) | inhibition ([1]; 0.03 mg/mL, 5 min) | inhibition ([1]; 0.03 mg/mL, 15 min) | activity at 10 µM [3] | activity at 50 µM [3] | activity at 10 µM [4] | activity at 50 µM [4] | IC50 [5] | activity at 10 µM [6] | activity at 50 µM [6] | activity at 10 µM [7] | activity at 50 µM [7] | SI [7] | further results
1 | CCCNC(=[Se])NC(=O)c1cccs1 [Compound 2.I, N-(propylcarbamoselenoyl)thiophene-2-carboxamide] | 0% | 4.9 ± 3.6% | 8.2 ± 3.3% | 11.4 ± 2.7% | 16 ± 3.4% | 17 ± 2.2% | 17.8 ± 2.2% | 2.5 ± 0.6% | 12.8 ± 1.8% | 36.2 ± 0.1% | 32.8 ± 7.2% | 15.2 ± 8.8% | 48.4 ± 13.8% | 32.7 ± 6.9% | 5.3 ± 0.6 µM | 54.5 ± 8.4% | 50.2 ± 2% | 92.3 ± 6.2% | 71.8 ± 4.4% | 0.6 | time to reach the highest DPPH inhibition ([1]; 0.03 mg/mL): 60 min; inhibition ([1]; 0.03 mg/mL, 30 min): 59 ± 3%; inhibition ([1]; 0.03 mg/mL, 60 min): 90.7 ± 5.7%; inhibition ([1]; 0.03 mg/mL, 90 min): 95.5 ± 0.2%; inhibition ([1]; 0.03 mg/mL, 120 min): 95.5 ± 0.3%; cell growth [2]: below 55%; Increase-fold (DU-145 cells; [8]): 0.8 ± 0.2; Increase-fold (DU-145 cells; [9]): 0.9 ± 0.2; Increase-fold (DU-145 cells; [10]): 1.0 ± 0.3; Increase-fold (DU-145 cells; [11]): 2.9 ± 1.5; Increase-fold (DU-145 cells; [12]): 3.1 ± 1.3; Increase-fold (DU-145 cells; [13]): 2.9 ± 1.2; IC50 [7]: 8.6 ± 1.1 µM
2 | C=CCNC(=[Se])NC(=O)c1cccnc1 [Compound 7.II, N-(allylcarbamoselenoyl)nicotinamide] | 3.6 ± 2.3% | 12 ± 2.2% | 16.8 ± 1.3% | 18.9 ± 1.3% | 20.3 ± 1.2% | 20.7 ± 1.3% | 20.7 ± 1.3% | 56.3 ± 6.2% | 90 ± 1.3% | 95.7 ± 0.4% | 33.9 ± 6.7% | 10.5 ± 7% | 110 ± 19.4% | 19 ± 3.6% | 6.3 ± 1.5 µM | 50.6 ± 2.4% | 8.95 ± 4.9% | 21.4 ± 8.2% | 10.2 ± 5.8% | 0.5 | time to reach the highest DPPH inhibition ([1]; 0.03 mg/mL): 5 min; DPPH Inhibitory% ([1]; 0.03 mg/mL, 90 min): 96.2 ± 0.2%; cell growth [2]: below 55%; Increase-fold (DU-145 cells; [8]): 2.3 ± 1.2; Increase-fold (DU-145 cells; [9]): 1.6 ± 0.2; Increase-fold (DU-145 cells; [10]): 1.8 ± 0.4; Increase-fold (DU-145 cells; [11]): 1.5 ± 0.2; Increase-fold (DU-145 cells; [12]): 1.2 ± 0.3; Increase-fold (DU-145 cells; [13]): 1.4 ± 0.3; IC50 [7]: 12 ± 2.7 µM
3 | C#CCNC(=[Se])NC(=O)c1ccc2c(c1)OCO2 [Compound 8.III, N-(prop-2-in-1-ylcarbamoselenoyl)benzo[d][1,3]dioxole-5-carboxamide] | 1.1 ± 2.3% | 2.4 ± 2.2% | 4.4 ± 2% | 6.2 ± 1.9% | 8.3 ± 1.8% | 9.2 ± 1.8% | 9.7 ± 1.8% | 6.4 ± 2.5% | 17.9 ± 0.9% | 32.8 ± 0.9% | 61.9 ± 13.5% | 19.1 ± 9.6% | 40.3 ± 8.3% | 18.1 ± 5.3% | > 100 µM | 63 ± 4.8% | 12.3 ± 7.8% | 34.5 ± 9.1% | 31.6 ± 6.1% | >4.6 | inhibition ([1]; 0.03 mg/mL, 30 min): 45.2 ± 2%; inhibition ([1]; 0.03 mg/mL, 60 min): 59.7 ± 3.8%; inhibition ([1]; 0.03 mg/mL, 120 min): 72.5 ± 8.1%; DPPH Inhibitory% ([1]; 0.03 mg/mL, 90 min): 62.4 ± 3.1%; IC50 [7]: 21.7 ± 4.1 µM
4 | C=CCNC(=[Se])NC(=O)c1cccc(C(=O)NC(=[Se])NCC=C)c1 [Compound 10.II, N^1,N^3-bis(allylcarbamoselenoyl)isophthalamide] | 0.9 ± 1.8% | 6.7 ± 1.7% | 11.5 ± 1.5% | 14.7 ± 1.2% | 17.7 ± 1.1% | 19 ± 0.9% | 19.7 ± 0.9% | 31.6 ± 4.1% | 69.1 ± 0.1% | 86.3 ± 0.9% | 24.8 ± 6.1% | 21 ± 9.4% | 47.8 ± 8.7% | 46.4 ± 4.8% | 29.9 ± 5 µM | 18.1 ± 2.7% | 18.8 ± 3.1% | 52.6 ± 10.5% | 43.5 ± 17.6% | 0.7 | time to reach the highest DPPH inhibition ([1]; 0.03 mg/mL): 60 min; inhibition ([1]; 0.03 mg/mL, 30 min): 94.4 ± 0.7%; inhibition ([1]; 0.03 mg/mL, 60 min): 96.1 ± 0.1%; inhibition ([1]; 0.03 mg/mL, 90 min): 96 ± 0.2%; inhibition ([1]; 0.03 mg/mL, 120 min): 96 ± 0.3%; cell growth [2]: below 55%; Increase-fold (DU-145 cells; [8]): 0.8 ± 0.4; Increase-fold (DU-145 cells; [9]): 1.0 ± 0.3; Increase-fold (DU-145 cells; [10]): 1.0 ± 0.2; Increase-fold (DU-145 cells; [11]): 1.0 ± 0.6; Increase-fold (DU-145 cells; [12]): 1.1 ± 0.2; Increase-fold (DU-145 cells; [13]): 1.1 ± 0.2

From PMC10376326, “Novel Acylselenourea Derivatives: Dual Molecules with Anticancer and Radical Scavenging Activity” (Antioxidants, 2023)
